# According to PubChem BioAssay (NCI):
#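 All cell lines were grown in 96-well plates and treated with compound for 48 hours. The concentration for full growth arrest is given as TGI.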
# How the values were obtained:
# Test in all cases: NCI tumour cell line growth inhibition, 48 h
# UACC-257 melanoma = system: UACC-257 melanoma
# HCT-15 colon = system: HCT-15 colon
# OVCAR-5 ovarian = system: OVCAR-5 ovarian
# HOP-92 NSCLC = system: HOP-92 NSCLC
# HL-60(TB) leukemia = system: HL-60(TB) leukemia
# HCC-2998 colon = system: HCC-2998 colon
# SW-620 colon = system: SW-620 colon
# ACHN renal = system: ACHN renal
# U251 CNS = system: U251 CNS
# SK-MEL-28 melanoma = system: SK-MEL-28 melanoma
# CAKI-1 renal = system: CAKI-1 renal
# M19-MEL melanoma = system: M19-MEL melanoma
# MOLT-4 leukemia = system: MOLT-4 leukemia
# SR leukemia = system: SR leukemia
# SF-295 CNS = system: SF-295 CNS
# SNB-78 CNS = system: SNB-78 CNS
# SF-539 CNS = system: SF-539 CNS
# KM12 colon = system: KM12 colon
# SK-MEL-2 melanoma = system: SK-MEL-2 melanoma
# DLD-1 colon = system: DLD-1 colon
# A549 NSCLC = system: A549 NSCLC
# OVCAR-8 ovarian = system: OVCAR-8 ovarian
# EKVX NSCLC = system: EKVX NSCLC
# LOX IMVI melanoma = system: LOX IMVI melanoma
# NCI-H23 lung = system: NCI-H23 lung
# RPMI-8226 leukemia = system: RPMI-8226 leukemia
# M14 melanoma = system: M14 melanoma
# HCT-116 colon = system: HCT-116 colon
# UACC-62 melanoma = system: UACC-62 melanoma
# RXF-631 renal = system: RXF-631 renal
# OVCAR-3 ovarian = system: OVCAR-3 ovarian
# HOP-18 NSCLC = system: HOP-18 NSCLC
# LXFL 529 NSCLC = system: LXFL 529 NSCLC
# CCRF-CEM leukemia = system: CCRF-CEM leukemia
# DMS 114 small cell lung = system: DMS 114 small cell lung
# MALME-3M melanoma = system: MALME-3M melanoma
# UO-31 renal = system: UO-31 renal
# XF 498 CNS = system: XF 498 CNS
# COLO 205 colon = system: COLO 205 colon
# NCI-H522 lung = system: NCI-H522 lung
# IGROV1 ovarian = system: IGROV1 ovarian
# SF-268 CNS = system: SF-268 CNS
# DMS 273 small cell lung = system: DMS 273 small cell lung
# HOP-62 NSCLC = system: HOP-62 NSCLC
# SNB-75 CNS = system: SNB-75 CNS
# K-562 leukemia = system: K-562 leukemia
# TK-10 renal = system: TK-10 renal
# HT29 colon = system: HT29 colon
# SK-OV-3 ovarian = system: SK-OV-3 ovarian
# SN12C renal = system: SN12C renal
# 786-0 renal = system: 786-0 renal
# SK-MEL-5 melanoma = system: SK-MEL-5 melanoma
# NCI-H226 lung = system: NCI-H226 lung
smiles,measurement,setting,value
CCOC(=O)/C(Br)=C1\OC(=O)c2ccccc2-c2ccccc21,TGI,UACC-257 melanoma,> 100 µM
same,TGI,HCT-15 colon,> 100 µM
same,TGI,OVCAR-5 ovarian,> 100 µM
same,TGI,HOP-92 NSCLC,79.9 µM
same,TGI,HL-60(TB) leukemia,40.1 µM
same,TGI,HCC-2998 colon,> 100 µM
same,TGI,SW-620 colon,> 100 µM
same,TGI,ACHN renal,> 100 µM
same,TGI,U251 CNS,> 100 µM
same,TGI,SK-MEL-28 melanoma,> 100 µM
same,TGI,CAKI-1 renal,> 100 µM
same,TGI,M19-MEL melanoma,> 100 µM
same,TGI,MOLT-4 leukemia,65.5 µM
same,TGI,SR leukemia,56.7 µM
same,TGI,SF-295 CNS,> 100 µM
same,TGI,SNB-78 CNS,> 100 µM
same,TGI,SF-539 CNS,73.1 µM
same,TGI,KM12 colon,> 100 µM
same,TGI,SK-MEL-2 melanoma,> 100 µM
same,TGI,DLD-1 colon,> 100 µM
same,TGI,A549 NSCLC,> 100 µM
same,TGI,OVCAR-8 ovarian,> 100 µM
same,TGI,EKVX NSCLC,> 100 µM
same,TGI,LOX IMVI melanoma,> 100 µM
same,TGI,NCI-H23 lung,> 100 µM
same,TGI,RPMI-8226 leukemia,> 100 µM
same,TGI,M14 melanoma,> 100 µM
same,TGI,HCT-116 colon,> 100 µM
same,TGI,UACC-62 melanoma,> 100 µM
same,TGI,RXF-631 renal,> 100 µM
same,TGI,OVCAR-3 ovarian,> 100 µM
same,TGI,HOP-18 NSCLC,> 100 µM
same,TGI,LXFL 529 NSCLC,99 µM
same,TGI,CCRF-CEM leukemia,67.7 µM
same,TGI,DMS 114 small cell lung,61.7 µM
same,TGI,MALME-3M melanoma,> 100 µM
same,TGI,UO-31 renal,> 100 µM
same,TGI,XF 498 CNS,> 100 µM
same,TGI,COLO 205 colon,49.9 µM
same,TGI,NCI-H522 lung,61.1 µM
same,TGI,IGROV1 ovarian,> 100 µM
same,TGI,SF-268 CNS,> 100 µM
same,TGI,DMS 273 small cell lung,> 100 µM
same,TGI,HOP-62 NSCLC,54.7 µM
same,TGI,SNB-75 CNS,> 100 µM
same,TGI,K-562 leukemia,> 100 µM
same,TGI,TK-10 renal,> 100 µM
same,TGI,HT29 colon,> 100 µM
same,TGI,SK-OV-3 ovarian,> 100 µM
same,TGI,SN12C renal,> 100 µM
same,TGI,786-0 renal,> 100 µM
same,TGI,SK-MEL-5 melanoma,> 100 µM
same,TGI,NCI-H226 lung,86.1 µM
